Measured values published in ChEMBL document CHEMBL1649504, “Activity of SQ641, a capuramycin analog, in a murine model of tuberculosis” (2009).
Converted amounts (≈) assume the structure as drawn.

How the values were obtained:
Assay type in all cases: functional
[1] = test system: Mycobacterium tuberculosis; assay: Antimycobacterial activity against Mycobacterium tuberculosis
Mycobacterium avium = assay: Antimycobacterial activity against Mycobacterium avium
[2] = test system: Mycobacterium tuberculosis; assay: Antibacterial activity against Mycobacterium tuberculosis H37Rv infected in C57BL/6 mouse assessed as […] in lung at 5 mg/kg administered for 1 week via oral gavage measured post last dose
[3] = test system: Mycobacterium tuberculosis; assay: Antibacterial activity against Mycobacterium tuberculosis H37Rv infected in C57BL/6 mouse assessed as […] in lung at 50 mg/kg, ip administered 5 times per week measured post last dose; conditions: route intraperitoneal
[4] = test system: Mycobacterium tuberculosis; assay: Antibacterial activity against Mycobacterium tuberculosis H37Rv infected in C57BL/6 mouse assessed as […] in lung at 25 mg/kg, iv administered 2 times per week measured post last dose
[5] = test system: Mycobacterium tuberculosis; assay: Antibacterial activity against Mycobacterium tuberculosis H37Rv infected in C57BL/6 mouse assessed as […] in lung at 100 mg/kg, ip administered 5 times per week measured post last dose; conditions: route intraperitoneal
[6] = test system: Mycobacterium tuberculosis; assay: Antibacterial activity against Mycobacterium tuberculosis H37Rv infected in C57BL/6 mouse assessed as […] in lung at 50 mg/kg, iv administered 2 times per week measured post last dose

Compound `CCCCCCCCCC(=O)O[C@@H]1[C@H](OC)[C@@H]([C@@H](CC(N)=O)O[C@H]2OC(C(=O)N[C@H]3CCC[C@@H](C)NC3=O)=C[C@@H](O)[C@H]2O)O[C@H]1n1ccc(=O)[nH]c1=O` has an MIC [1] of 1 µg/mL (≈ 1.33 µM), an MIC (Mycobacterium avium) of 0.016 µg/mL (≈ 0.0213 µM) and a log10cfu [2] of 5.1. For the same compound, the log10cfu [3] was 6.7, the log10cfu [4] was 6.1 and the log10cfu [5] was 6.15. It also gave a log10cfu [6] of 6.01.
